Experimental data published in patent EP3532040B1, “A PERSONAL CARE COMPOSITION” (Unilever Global IP Limited, priority 2016, dated 2018).

Assays:
[1] = Visual assessment of color of the compound compared with curcumin; assay type: physicochemical; settings: color of the compound itself
Excerpt: It is desirable that the color of the novel compound of the present invention lies within the colorless to light yellow range for optimum visual appeal and usage in topical and/or skin care compositions. Visual assessment of color from a solid or solution sample of novel compounds in comparison to a solid or solution sample of curcumin provides a means to determine relative reduction of color and appeal potential. In addition, UV-Vis spectra of solution samples of novel compounds in comparison to a solution sample of curcumin provides a means to measure color experimentally and allows a more direct measurement of color. Thus, using these two simple measurements it is possible to assess the relative reduction in color of novel inventive compounds relative to curcumin and allows prioritization of compounds for further development.

[2] = Color assessment of solutions (L*a*b* color space, Labscan XE, and visual appearance); assay type: physicochemical; settings: 200 µM in ethyl acetate; for b* / L* / a*: 21 °C; for b*: vehicle 1.78; for L*: vehicle 68.79; for a*: vehicle -0.49
Experimental: Solutions of compound with formula 1 and curcumin were prepared in ethyl acetate (200 µM) and the L*a*b* color space measured at room temperature (21 °C) using a Labscan XE instrument (Hunter Associates Labs Inc., Reston, VA) and processed with Universal Software (version 4.10). […]

[3] = tested on: Primary human gingival fibroblasts; assay: Anti-inflammation efficacy in Human Gingival Fibroblasts assay (P. gingivalis-stimulated IL-6, IL-8, MCP-1 release, ELISA); assay type: cell-based; settings: 20 µM active preincubated 2 h, then heat-inactivated P. gingivalis 4 h
Experimental: Primary human gingival fibroblasts (HGFs, Cat No. 2620, ScienCell™) were cultured in complete fibroblast medium which included 500 mL of basal medium, 10 mL of fetal bovine serum (FBS), 5 mL of fibroblast growth supplement, and 5 mL of penicillin/streptomycin solution (Cat No. 2301, ScienCell™). HGFs were seeded in 24 well-plates at the density of 2 × 10^4 cells / well and cultured for 72 h. Cells were preincubated with active for 2 h. After removal of the active medium, the cells were washed with PBS and further treated with heat-inactivated P. gingivalis (Cat. 33277, ATCC). After 4 h, the supernatants were collected and measured for IL-6, IL-8 and monocyte chemoattractant protein (MCP) -1 as pro-inflammatory bio-markers using ELISA.

[4] = Solubility in solvents compared with curcumin; assay type: physicochemical
THP1-XBlue cells = assay: Anti-inflammation efficacy in THP-1 in vitro assay (LPS-stimulated IL-6 release, ELISA); assay type: cell-based; settings: 24 h, PMA-differentiated cells, LPS alone 10508
Experimental: THP1-XBlue™ (Cat No: thpx-sp, InvivoGen) cells were cultured as suspense in RPMI 1640 medium supplemented with 10% FBS, penicillin (10 U/mL) - streptomycin (10 µg/ML). Cells were differentiated in 24-well plates at the density of 5 × 10^5 cells / well with 100 nM PMA for 72 h. Cells were then co-treated with pure E. coli lipopolysaccharides (LPS) and with active. After 24 h, the supernatants were collected and measured for interleukin (IL)-6 as pro-inflammatory bio-marker using enzyme-linked immunosorbent assay (ELISA).

Structure (SMILES) | color [1] | Appearance (visual appearance of solution) [2] | b* [2] | L* [2] | a* [2] | Concentration MCP-1 ([3]; P. gingivalis alone 388) [pg/mL] | Concentration IL-6 ([3]; P. gingivalis alone 595) [pg/mL] | Concentration IL-8 ([3]; P. gingivalis alone 17100) [pg/mL] | solubility in a broad spectrum of solvents [4] | Concentration of IL-6 (THP1-XBlue cells; 10 µM active co-treated with E. coli LPS) [pg/mL] | Concentration of IL-6 (THP1-XBlue cells; 20 µM active co-treated with E. coli LPS) [pg/mL]
COc1cc(/C=C/C(=O)CC(=O)/C=C/c2ccc(O)c(OC)c2)ccc1O [Curcumin, reference compound] | orange | yellow | 63.88 | 68.53 | -18.66 |  |  |  |  |  | 
COc1cc(C2CC2C(=O)C(C)(C)C(=O)C2CC2c2ccc(O)c(OC)c2)ccc1O (stereo not shown) [compound of formula 1, 1,3-bis(2-(4-hydroxy-3-methoxyphenyl)cyclopropyl)-2,2-dimethylpropane-1,3-dione] | light yellow | colorless | 2.49 | 68.62 | -0.68 | 232 | 286 | 8321 | significantly improved solubility | 5591 | 2996
